Assay results taken from patent publication US7507729B2, “Substituted imidazo-[1,5-a][1,2,4]triazolo[1,5-d][1,4] benzodiazepine derivatives” (priority 2005, dated 2009).
pKi: −log10 of the molar value. Where a name gives a salt, the structure may show the parent alone. Read-outs that look alike come from different tables or passages of the source.

Columns and labels:
[1] = target: T1, GABA A receptor α5β3γ2 (hα5) (Homo sapiens, UniProt P18507+P31644); experiment: [3H]flumazenil competition binding, membranes of HEK293 cells expressing human GABA A α5β3γ2; conditions: for Ki: [3H]flumazenil 0.5 nM, 1 hour at 4° C., means of two determinations, read-out: Ki[nM] hα5
T1 construct: expressed in transfected cells; host or cells: HEK293, transiently transfected; membranes
Description: (§1) The affinity of compounds at GABA A receptor subtypes was measured by competition for [^3H]flumazenil (85 Ci/mmol; Roche) binding to HEK293 cells expressing rat (stably transfected) or human (transiently transfected) receptors of composition α1β3γ2, α2β3γ2, α3β3γ2 and α5β3γ2.
(§2) Cell pellets were suspended in Krebs-tris buffer (4.8 mM KCl, 1.2 mM CaCl2, 1.2 mM MgCl2, 120 mM NaCl, 15 mM Tris; pH 7.5; binding assay buffer), homogenized by polytron for ca. 20 sec on ice and centrifuged for 60 min at 4° C. (50000 g; Sorvall, rotor: SM24=20000 rpm). The cell pellets were resuspended in Krebs-tris buffer and homogenized by polytron for ca. 15 sec on ice. Protein was measured (Bradford method, Bio-Rad) and aliquots of 1 mL were prepared and stored at −80° C.
(§3) Radioligand binding assays were carried out in a volume of 200 μL (96-well plates) which contained 100 μL of cell membranes, [^3H]flumazenil at a concentration of 1 nM for α1, α2, α3 subunits and 0.5 nM for α5 subunits and the test compound in the range of 10^−10-3×10^−6 M.
(§4) Nonspecific binding was defined by 10^−5 M diazepam and typically represented less than 5% of the total binding. Assays were incubated to equilibrium for 1 hour at 4° C. and harvested onto GF/C uni-filters (Packard) by filtration using a Packard harvester and washing with ice-cold wash buffer (50 mM Tris; pH 7.5). After drying, filter-retained radioactivity was detected by liquid scintillation counting. Ki values were calculated using Excel-Fit (Microsoft) and are the means of two determinations.

[2] = target: T2, GABA A receptor α1β3γ2 (hα1) (Homo sapiens, UniProt P14867+P18507); experiment: [3H]flumazenil competition binding, membranes of HEK293 cells expressing human GABA A α1β3γ2; conditions: for Ki: [3H]flumazenil 1 nM, 1 hour at 4° C., means of two determinations, read-out: Ki[nM] hα1
T2 construct: expressed in transfected cells; host or cells: HEK293, transiently transfected; membranes
Description: as §1, §2, §3, §4

| Molecule | Ki [1] [nM] | Ki [2] [nM] | pKi [2] | pKi [1] |
| --- | --- | --- | --- | --- |
| 3-Bromo-10-chloro-6-(hydroxy-phenyl-ethyl)-9H-imidazo[1,5-a][1,2,4]triazolo[1,5-d][1,4]benzodiazepine [Example 54] | 0.9 | 34.6 |  |  |
| CCOC(=O)c1ncn2c1Cn1nc(COC)nc1-c1cc(Cl)ccc1-2 [Example 4, Ethyl 3-chloro-6-methoxymethyl-9H-imidazo[1,5-a][1,2,4]triazolo[1,5-d][1,4]benzodiazepine-10-carboxylate] | 0.3 |  | 8.07 |  |
| Clc1ccc2c(c1)-c1nc(Cn3nccn3)nn1Cc1c(Cl)ncn1-2 [Example 10, 3,10-Dichloro-6-[1,2,3]triazol-2-ylmethyl-9H-imidazo[1,5-a][1,2,4]triazolo[1,5-d][1,4]benzodiazepine] | 0.4 |  | 7.20 |  |
| Clc1ccc2c(c1)-c1nc(Cn3ccnn3)nn1Cc1c(Cl)ncn1-2 [Example 11, 3,10-Dichloro-6-[1,2,3]triazol-1-ylmethyl-9H-imidazo[1,5-a][1,2,4]triazolo[1,5-d][1,4]benzodiazepine] | 0.5 |  | 7.32 |  |
| Clc1ccc2c(c1)-c1nc(Cn3cncn3)nn1Cc1c(Cl)ncn1-2 [Example 12, 3,10-Dichloro-6-[1,2,4]triazol-1-ylmethyl-9H-imidazo[1,5-a][1,2,4]triazolo[1,5-d][1,4]benzodiazepine] | 0.8 |  | 7.29 |  |
| Clc1ccc2c(c1)-c1nc(Cn3cccn3)nn1Cc1c(Cl)ncn1-2 [Example 13, 3,10-Dichloro-6-pyrazol-1-ylmethyl-9H-imidazo[1,5-a][1,2,4]triazolo[1,5-d][1,4]benzodiazepine] | 0.9 |  | 7.51 |  |
| Clc1ccc2c(c1)-c1nc(Cn3nc4ccccc4n3)nn1Cc1c(Cl)ncn1-2 [Example 21, 6-Benzotriazol-2-ylmethyl-3,10-dichloro-9H-imidazo[1,5-a][1,2,4]triazolo[1,5-d][1,4]benzodiazepine] |  | 133 |  |  |
| Clc1ccc2c(c1)-c1nc(Cn3nnc4ccccc43)nn1Cc1c(Cl)ncn1-2 [Example 22, 6-Benzotriazol-1-ylmethyl-3,10-dichloro-9H-imidazo[1,5-a][1,2,4]triazolo[1,5-d][1,4]benzodiazepine] | 0.4 |  | 7.28 |  |
| Clc1ccc2c(c1)-c1nc(Cn3cc4ccccc4n3)nn1Cc1c(Cl)ncn1-2 [Example 26, 3,10-Dichloro-6-indazol-2-ylmethyl-9H-imidazo[1,5-a][1,2,4]triazolo[1,5-d][1,4]benzodiazepine] |  | 111 |  |  |
| O=C1CCCN1Cc1nc2n(n1)Cc1c(Cl)ncn1-c1ccc(Br)cc1-2 [Example 49, 3-Bromo-10-chloro-6-(2-oxo-pyrrolidin-1-ylmethyl)-9H-imidazo[1,5-a][1,2,4]triazolo[1,5-d][1,4]benzodiazepine] | 0.9 |  | 6.94 |  |
| O=C1OCCN1Cc1nc2n(n1)Cc1c(Cl)ncn1-c1ccc(Br)cc1-2 [Example 50] |  |  | 7.07 |  |
| OC(c1cccnc1)c1nc2n(n1)Cc1c(Cl)ncn1-c1ccc(Br)cc1-2 (stereo not shown) [Example 58, 3-Bromo-10-chloro-6-(hydroxy-pyridin-3-yl-methyl)-9H-imidazo[1,5-a][1,2,4]triazolo[1,5-d][1,4]benzodiazepine] | 0.7 | 69.4 |  |  |
| O=C(Cc1nc2n(n1)Cc1c(Cl)ncn1-c1ccc(Br)cc1-2)NC1CCCC1 [Example 61, 3-Bromo-10-chloro-6-cyclopentylcarbamoylmethyl-9H-imidazo[1,5-a][1,2,4]triazolo[1,5-d][1,4]benzodiazepine] | 0.6 |  | 7.04 |  |
| O=C(Cc1nc2n(n1)Cc1c(Cl)ncn1-c1ccc(Br)cc1-2)NC1CCOCC1 [Example 62, 3-Bromo-10-chloro-6-[(tetrahydro-pyran-4-ylcarbamoyl)-methyl]-9H-imidazo[1,5-a][1,2,4]triazolo[1,5-d][1,4]benzodiazepine] | 0.7 |  | 7.05 |  |
| O=C(Cc1nc2n(n1)Cc1c(Cl)ncn1-c1ccc(Br)cc1-2)NCc1cccnc1 [Example 63, 3-Bromo-10-chloro-6-{[(Pyridin-3-ylmethyl)-carbamoyl]-methyl}-9H-imidazo[1,5-a][1,2,4]triazolo[1,5-d][1,4]benzodiazepine] | 0.8 |  | 7.19 |  |
| O=C(Cc1nc2n(n1)Cc1c(Cl)ncn1-c1ccc(Br)cc1-2)NCC1CC1 [Example 64, 3-Bromo-10-chloro-6-[(cyclopropylmethyl-carbamoyl)-methyl]-9H-imidazo[1,5-a][1,2,4]triazolo[1,5-d][1,4]benzodiazepine] | 0.5 |  | 7.16 |  |
| O=C(Cc1nc2n(n1)Cc1c(Cl)ncn1-c1ccc(Br)cc1-2)NCCO [Example 65, 3-Bromo-10-chloro-6-[(2-hydroxy-ethylcarbamoyl)-methyl]-9H-imidazo[1,5-a][1,2,4]triazolo[1,5-d][1,4]benzodiazepine] |  |  | 6.83 |  |
| Cc1noc(Cc2nc3n(n2)Cc2c(Cl)ncn2-c2ccc(Br)cc2-3)n1 [Example 72, 3-Bromo-10-chloro-6-(3-methyl-[1,2,4]oxadiazol-5-ylmethyl)-9H-imidazo[1,5-a][1,2,4]triazolo[1,5-d][1,4]benzodiazepine] | 0.7 |  | 7.01 |  |
| COCC1CN(Cc2nc3n(n2)Cc2c(Cl)ncn2-c2ccc(Br)cc2-3)C(=O)O1 (stereo not shown) [Example 83, 3-Bromo-10-chloro-6-(5-methoxymethyl-2-oxo-oxazolidin-3-ylmethyl)-9H-imidazo[1,5-a][1,2,4]triazolo[1,5-d][1,4]benzodiazepine] |  | 113 |  |  |
| Cc1ncn2c1Cn1nc(Cc3ccncc3)nc1-c1cc(Br)ccc1-2 [Example 122, 3-Bromo-10-methyl-6-(pyridine-4-ylmethyl)-9H-imidazo[1,5-a][1,2,4]triazolo[1,5-d][1,4]benzodiazepine] |  | 150 |  | 9.30 |
| Cc1cc(Cc2nc3n(n2)Cc2c(C)ncn2-c2ccc(Br)cc2-3)on1 [Example 123, 3-Bromo-10-methyl-6-(3-methyl-isoxazol-5-ylmethyl)-9H-imidazo[1,5-a][1,2,4]triazolo[1,5-d][1,4]benzodiazepine] |  | 188 |  | 9.22 |
| Cc1ccc(Cc2nc3n(n2)Cc2c(C)ncn2-c2ccc(Br)cc2-3)cn1 [Example 124, 3-Bromo-10-methyl-6-(6-methyl-pyridin-3-ylmethyl)-9H-imidazo[1,5-a][1,2,4]triazolo[1,5-d][1,4]benzodiazepine] |  | 219 |  |  |
| Cc1ncn2c1Cn1nc(Cn3ccnn3)nc1-c1cc(Br)ccc1-2 [Example 162, 3-Bromo-10-methyl-6-[1,2,3]triazol-1-ylmethyl-9H-imidazo[1,5-a][1,2,4]triazolo[1,5-d][1,4]benzodiazepine hydrochloride (1:1)] |  | 152 |  |  |
| COc1ccccc1Cc1nc2n(n1)Cc1c(C)ncn1-c1ccc(Br)cc1-2 [Example 168, 3-Bromo-6-(2-methoxy-benzyl)-10-methyl-9H-imidazo[1,5-a][1,2,4]triazolo[1,5-d][1,4]benzodiazepine hydrochloride (1:1)] |  |  | 7.20 |  |
| Cc1cc(Cc2nc3n(n2)Cc2c(C)ncn2-c2ccc(Cl)cc2-3)on1 [Example 183, 3-Chloro-10-methyl-6-(3-methyl-isoxazol-5-ylmethyl)-9H-imidazo[1,5-a][1,2,4]triazolo[1,5-d][1,4]benzodiazepine hydrochloride (1:1)] |  | 279 |  | 9.22 |
| Cc1ccc(Cc2nc3n(n2)Cc2c(C)ncn2-c2ccc(Cl)cc2-3)cn1 [Example 185, 3-Chloro-10-methyl-6-(6-methyl-pyridin-3-ylmethyl)-9H-imidazo[1,5-a][1,2,4]triazolo[1,5-d][1,4]benzodiazepine] |  | 248 |  | 9.05 |
| Cc1cc(Cc2nc3n(n2)Cc2c(C)ncn2-c2ccc(Cl)cc2-3)ccn1 [Example 191, 3-Chloro-10-methyl-6-(2-methyl-pyridin-4-ylmethyl)-9H-imidazo[1,5-a][1,2,4]triazolo[1,5-d][1,4]benzodiazepine] |  | 266 |  |  |
| Cc1ccc2c(c1)-c1nc(Cc3cc(C)no3)nn1Cc1c(C)ncn1-2 [Example 236, 3,10-Dimethyl-6-(3-methyl-isoxazol-5-ylmethyl)-9H-imidazo[1,5-a][1,2,4]triazolo[1,5-d][1,4]benzodiazepine] |  | 496 |  | 9.10 |
| Cc1ncn2c1Cn1nc(Cn3ccnn3)nc1-c1cc(Cl)ccc1-2 [Example 364, 3-Chloro-10-methyl-6-[1,2,3]triazol-1-ylmethyl-9H-imidazo[1,5-a][1,2,4]triazolo[1,5-d][1,4]benzodiazepine hydrochloride (1:1)] |  | 134 |  |  |
| Cc1ncn2c1Cn1nc(Cc3ccn[nH]3)nc1-c1ccccc1-2 [Example 380, 10-Methyl-6-(2H-pyrazol-3-ylmethyl)-9H-imidazo[1,5-a][1,2,4]triazolo[1,5-d][1,4]benzodiazepine hydrochloride (1:1)] |  |  | 7.25 |  |
